From ChEMBL document CHEMBL5726081, “Therapeutic inhibitory compounds” (2017) come the findings set out here.

For the assay, the target named is Plasma kallikrein (Homo sapiens, UniProt P03952). Put plainly: In Vitro Enzyme Inhibition Assay: The ability of the compounds disclosed herein to inhibit human plasma kallikrein activity was quantified according to the procedures below.A 10 mM solution of the test compound was made in DMSO. […] A control tube containing only DMSO is included. […] 50 μL was removed from this mixture and placed into duplicate wells on a Microfluor 1Black U-bottom microtiter plate (Thermo Scientific). This plate was incubated for 5 minutes at 37° C. To each well, 50 μL of pre-warmed 2×PFR-AMC was added to start the enzymatic reaction. Cleavage of PFR-AMC was monitored in a Biotek Synergy H4 reader set at 37° C. Readings are taken every 43 seconds for 1 hour.
Sequence of Plasma kallikrein (P03952 20-390 limits assumed): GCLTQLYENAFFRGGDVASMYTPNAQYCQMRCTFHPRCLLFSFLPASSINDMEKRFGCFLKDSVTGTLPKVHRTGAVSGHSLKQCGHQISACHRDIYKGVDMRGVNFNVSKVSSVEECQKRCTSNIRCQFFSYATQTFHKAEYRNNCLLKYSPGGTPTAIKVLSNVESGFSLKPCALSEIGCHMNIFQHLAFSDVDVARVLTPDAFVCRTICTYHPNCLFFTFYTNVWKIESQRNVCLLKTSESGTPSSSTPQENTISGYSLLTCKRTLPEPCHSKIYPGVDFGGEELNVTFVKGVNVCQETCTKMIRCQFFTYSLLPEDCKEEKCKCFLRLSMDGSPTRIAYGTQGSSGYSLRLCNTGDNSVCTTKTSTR
Sequence of Plasma kallikrein (P03952 391-638 limits assumed): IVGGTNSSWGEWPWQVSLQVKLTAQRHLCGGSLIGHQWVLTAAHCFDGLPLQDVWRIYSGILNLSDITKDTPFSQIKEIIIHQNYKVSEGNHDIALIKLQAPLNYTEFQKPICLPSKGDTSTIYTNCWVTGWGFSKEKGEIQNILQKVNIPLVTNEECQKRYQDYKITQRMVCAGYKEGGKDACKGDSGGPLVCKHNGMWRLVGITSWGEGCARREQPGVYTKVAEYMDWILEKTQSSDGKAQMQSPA

As to `N#Cc1ccc2cc(Cc3cc(C(=O)NCc4cc5c(Cl)c[nH]c5cc4F)ccn3)ccc2n1`, the IC50 – broadly, the point on the concentration scale where inhibition reaches its midpoint – was less than 100 nM.
The same measure for `Cc1nc(N)ccc1CNC(=O)c1ccnc(Cc2cc(C#N)c3ncc(Cl)cc3c2)c1`: less than 100 nM.
